Test results from ChEMBL document CHEMBL1201862, “PubChem BioAssay data set” (2004).
The source made the active and inactive calls.

Legend:
[1] = biological target: Receptor tyrosine-protein kinase erbB-2 (Homo sapiens, UniProt P04626); assay: Navigating the Kinome. Panel member name: ERBB2; assay type: functional
[2] = biological target: Inhibitor of nuclear factor kappa-B kinase subunit beta (Homo sapiens, UniProt O14920); assay type: functional
[3] = biological target: MAP kinase-activated protein kinase 2 (Homo sapiens, UniProt P49137); assay type: functional;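 further: measured as one member of a kinome-wide kinase panel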
[4] = biological target: Mitogen-activated protein kinase 12 (Homo sapiens, UniProt P53778); assay type: functional;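 further: measured as one member of a kinome-wide kinase profiling panel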
[5] = biological target: Serine/threonine-protein kinase pim-2 (Homo sapiens, UniProt Q9P1W9); assay type: functional;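 further: value comes from a broad kinase panel profiling study in which PIM2 was one of the panel members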
[6] = biological target: Mitogen-activated protein kinase 13 (Homo sapiens, UniProt O15264); assay type: functional
[7] = biological target: Epidermal growth factor receptor (Homo sapiens, UniProt P00533)
[8] = biological target: Inhibitor of nuclear factor kappa-B kinase subunit alpha (Homo sapiens, UniProt O15111); assay type: functional
[9] = biological target: Serine/threonine-protein kinase PLK3 (Homo sapiens, UniProt Q9H4B4); assay type: functional
[10] = biological target: Protein kinase C gamma type (Homo sapiens, UniProt P05129); assay type: functional
[11] = biological target: MAP/microtubule affinity-regulating kinase 3 (Homo sapiens, UniProt P27448); assay type: functional;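 further: MARK3 affinity measured as one member of a kinome panel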
[12] = biological target: LIM domain kinase 1 (Homo sapiens, UniProt P53667); assay: Navigating the Kinome. Panel member name: LIMK1; assay type: functional
[13] = biological target: Receptor tyrosine-protein kinase erbB-4 (Homo sapiens, UniProt Q15303); assay type: functional;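 further: ERBB4 member of a kinome-wide kinase profiling panel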
[14] = biological target: Mitogen-activated protein kinase 1 (Homo sapiens, UniProt P28482); assay type: functional
[15] = biological target: Tyrosine-protein kinase ITK/TSK (Homo sapiens, UniProt Q08881); assay type: functional;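 further: affinity for ITK measured as one member of a broad kinase panel profiling binding across the kinome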
[16] = biological target: Serine/threonine-protein kinase Chk2 (Homo sapiens, UniProt O96017); assay type: functional;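 further: CHEK2 entry within a kinome-wide screening panel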
[17] = biological target: Serine/threonine-protein kinase PAK 1 (Homo sapiens, UniProt Q13153); assay type: functional
[18] = biological target: Non-receptor tyrosine-protein kinase TYK2 (Homo sapiens, UniProt P29597); assay type: functional
[19] = biological target: RAC-gamma serine/threonine-protein kinase (Homo sapiens, UniProt Q9Y243); assay type: functional
[20] = biological target: Serine/threonine-protein kinase PLK1 (Homo sapiens, UniProt P53350); assay type: functional;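 further: PLK1 measured as one member of a kinome-wide profiling panel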
[21] = biological target: Serine/threonine-protein kinase D2 (Homo sapiens, UniProt Q9BZL6); assay type: functional;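 further: measured against PRKD2 as one member of a kinome-wide kinase profiling panel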
[22] = biological target: Serine/threonine-protein kinase MRCK alpha (Homo sapiens, UniProt Q5VT25); assay type: functional
[23] = biological target: Casein kinase II subunit alpha (Homo sapiens, UniProt P68400); assay type: functional
[24] = biological target: Serine/threonine-protein kinase TBK1 (Homo sapiens, UniProt Q9UHD2); assay: Navigating the Kinome. Panel member name: TBK1; assay type: functional
[25] = biological target: Mitogen-activated protein kinase 14 (Homo sapiens, UniProt Q16539); assay type: functional;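 further: part of a kinome-wide panel, MAPK14 entry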
[26] = biological target: Activin receptor type-1 (Homo sapiens, UniProt Q04771); assay: Navigating the Kinome. Panel member name: ACVR1; assay type: functional
[27] = biological target: cAMP-dependent protein kinase catalytic subunit PRKX (Homo sapiens, UniProt P51817); assay type: functional
[28] = biological target: Homeodomain-interacting protein kinase 2 (Homo sapiens, UniProt Q9H2X6); assay type: functional;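 further: measured within a kinome-wide kinase profiling panel, HIPK2 being one panel member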
[29] = biological target: Dual specificity mitogen-activated protein kinase kinase 1 (Homo sapiens, UniProt Q02750); assay: Navigating the Kinome. Panel member name: MAP2K1; assay type: functional
[30] = biological target: Cyclin-dependent kinase 9 (Homo sapiens, UniProt P50750); assay type: functional;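 further: value from the CDK9 entry of a kinome-spanning kinase panel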
[31] = biological target: Tyrosine-protein kinase BTK (Homo sapiens, UniProt Q06187); assay type: functional
[32] = biological target: Dual specificity protein kinase CLK2 (Homo sapiens, UniProt P49760); assay type: functional
[33] = biological target: Calcium/calmodulin-dependent protein kinase type II subunit delta (Homo sapiens, UniProt Q13557); assay type: functional
[34] = biological target: Dual specificity protein kinase CLK4 (Homo sapiens, UniProt Q9HAZ1); assay type: functional
[35] = biological target: Cyclin-dependent kinase 8 (Homo sapiens, UniProt P49336); assay: Navigating the Kinome. Panel member name: CDK8; assay type: functional
[36] = biological target: Mitogen-activated protein kinase kinase kinase kinase 2 (Homo sapiens, UniProt Q12851); assay type: functional;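 further: measured as one member of a kinome-wide kinase panel, with MAP4K2 as the panel entry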
[37] = biological target: Protein kinase C theta type (Homo sapiens, UniProt Q04759); assay: Navigating the Kinome. Panel member name: PRKCQ; assay type: functional
[38] = biological target: Dual specificity tyrosine-phosphorylation-regulated kinase 1B (Homo sapiens, UniProt Q9Y463); assay: Navigating the Kinome. Panel member name: DYRK1B; assay type: functional
[39] = biological target: Calcium/calmodulin-dependent protein kinase type II subunit alpha (Homo sapiens, UniProt Q9UQM7); assay: Navigating the Kinome. Panel member name: CAMK2A; assay type: functional
[40] = biological target: Casein kinase I isoform alpha (Homo sapiens, UniProt P48729); assay type: functional
[41] = biological target: Platelet-derived growth factor receptor beta (Homo sapiens, UniProt P09619); assay type: functional;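 further: value comes from a kinome panel, with PDGFRB tested as one panel member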
[42] = biological target: Maternal embryonic leucine zipper kinase (Homo sapiens, UniProt Q14680); assay type: functional
[43] = biological target: Platelet-derived growth factor receptor alpha (Homo sapiens, UniProt P16234); assay: Navigating the Kinome. Panel member name: PDGFRA; assay type: functional
[44] = biological target: ALK tyrosine kinase receptor (Homo sapiens, UniProt Q9UM73); assay type: functional;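 further: ALK tested as one member of a kinase panel screen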
[45] = biological target: Serine/threonine-protein kinase 17A (Homo sapiens, UniProt Q9UEE5); assay type: functional
[46] = biological target: Misshapen-like kinase 1 (Homo sapiens, UniProt Q8N4C8); assay type: functional;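 further: kinome panel screen with MINK as the panel member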
[47] = biological target: Focal adhesion kinase 1 (Homo sapiens, UniProt Q05397); assay type: functional;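 further: measured as one member of a kinome panel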

Sequence of Tyrosine-protein kinase ITK/TSK (Q08881 whole entry): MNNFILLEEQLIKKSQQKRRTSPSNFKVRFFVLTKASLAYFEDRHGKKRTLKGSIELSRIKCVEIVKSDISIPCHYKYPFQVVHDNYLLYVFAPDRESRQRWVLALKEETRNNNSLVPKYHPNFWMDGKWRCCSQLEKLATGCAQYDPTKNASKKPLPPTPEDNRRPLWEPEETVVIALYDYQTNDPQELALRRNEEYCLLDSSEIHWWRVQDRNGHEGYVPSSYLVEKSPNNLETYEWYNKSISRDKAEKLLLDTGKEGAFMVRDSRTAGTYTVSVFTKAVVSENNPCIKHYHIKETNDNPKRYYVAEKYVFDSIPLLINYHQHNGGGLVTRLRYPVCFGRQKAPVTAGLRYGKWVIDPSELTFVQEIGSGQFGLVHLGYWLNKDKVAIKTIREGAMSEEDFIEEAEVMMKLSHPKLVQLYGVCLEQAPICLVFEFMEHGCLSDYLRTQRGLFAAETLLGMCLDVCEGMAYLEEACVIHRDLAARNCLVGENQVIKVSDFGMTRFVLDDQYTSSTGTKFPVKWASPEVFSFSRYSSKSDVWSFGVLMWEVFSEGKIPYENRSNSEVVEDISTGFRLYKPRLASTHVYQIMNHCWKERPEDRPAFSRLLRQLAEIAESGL
Sequence of Serine/threonine-protein kinase D2 (Q9BZL6 whole entry): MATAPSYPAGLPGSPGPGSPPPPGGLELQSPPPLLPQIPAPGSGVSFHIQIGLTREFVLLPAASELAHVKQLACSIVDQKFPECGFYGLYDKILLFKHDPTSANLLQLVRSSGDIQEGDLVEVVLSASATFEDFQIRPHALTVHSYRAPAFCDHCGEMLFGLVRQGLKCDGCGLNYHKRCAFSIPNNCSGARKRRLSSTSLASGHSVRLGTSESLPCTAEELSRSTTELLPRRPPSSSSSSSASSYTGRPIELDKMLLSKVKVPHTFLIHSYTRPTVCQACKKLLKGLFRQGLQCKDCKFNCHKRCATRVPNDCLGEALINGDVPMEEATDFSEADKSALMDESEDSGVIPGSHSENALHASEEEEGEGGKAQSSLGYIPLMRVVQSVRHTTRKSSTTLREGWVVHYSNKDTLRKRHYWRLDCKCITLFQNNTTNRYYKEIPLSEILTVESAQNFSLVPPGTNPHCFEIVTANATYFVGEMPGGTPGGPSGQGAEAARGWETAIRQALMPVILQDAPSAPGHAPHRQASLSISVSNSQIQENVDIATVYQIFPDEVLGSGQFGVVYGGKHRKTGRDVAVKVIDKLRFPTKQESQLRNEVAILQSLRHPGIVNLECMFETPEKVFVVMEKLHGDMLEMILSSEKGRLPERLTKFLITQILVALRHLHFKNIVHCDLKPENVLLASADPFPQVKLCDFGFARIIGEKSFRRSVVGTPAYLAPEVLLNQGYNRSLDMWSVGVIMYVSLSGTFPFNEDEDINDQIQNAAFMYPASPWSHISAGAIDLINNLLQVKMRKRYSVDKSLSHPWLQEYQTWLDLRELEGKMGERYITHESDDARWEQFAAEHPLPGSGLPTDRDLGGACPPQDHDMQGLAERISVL
Sequence of Mitogen-activated protein kinase 12 (P53778 whole entry): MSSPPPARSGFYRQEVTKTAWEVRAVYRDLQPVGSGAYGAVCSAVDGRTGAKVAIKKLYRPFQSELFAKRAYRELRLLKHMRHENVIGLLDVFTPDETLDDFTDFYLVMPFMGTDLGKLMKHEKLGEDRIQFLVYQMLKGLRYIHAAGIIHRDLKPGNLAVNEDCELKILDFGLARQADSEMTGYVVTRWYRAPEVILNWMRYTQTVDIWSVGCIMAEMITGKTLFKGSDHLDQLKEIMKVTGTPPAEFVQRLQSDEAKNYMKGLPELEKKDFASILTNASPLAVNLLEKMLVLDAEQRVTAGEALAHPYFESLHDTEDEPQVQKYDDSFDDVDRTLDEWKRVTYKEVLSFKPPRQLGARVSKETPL
Sequence of Serine/threonine-protein kinase TBK1 (Q9UHD2 whole entry): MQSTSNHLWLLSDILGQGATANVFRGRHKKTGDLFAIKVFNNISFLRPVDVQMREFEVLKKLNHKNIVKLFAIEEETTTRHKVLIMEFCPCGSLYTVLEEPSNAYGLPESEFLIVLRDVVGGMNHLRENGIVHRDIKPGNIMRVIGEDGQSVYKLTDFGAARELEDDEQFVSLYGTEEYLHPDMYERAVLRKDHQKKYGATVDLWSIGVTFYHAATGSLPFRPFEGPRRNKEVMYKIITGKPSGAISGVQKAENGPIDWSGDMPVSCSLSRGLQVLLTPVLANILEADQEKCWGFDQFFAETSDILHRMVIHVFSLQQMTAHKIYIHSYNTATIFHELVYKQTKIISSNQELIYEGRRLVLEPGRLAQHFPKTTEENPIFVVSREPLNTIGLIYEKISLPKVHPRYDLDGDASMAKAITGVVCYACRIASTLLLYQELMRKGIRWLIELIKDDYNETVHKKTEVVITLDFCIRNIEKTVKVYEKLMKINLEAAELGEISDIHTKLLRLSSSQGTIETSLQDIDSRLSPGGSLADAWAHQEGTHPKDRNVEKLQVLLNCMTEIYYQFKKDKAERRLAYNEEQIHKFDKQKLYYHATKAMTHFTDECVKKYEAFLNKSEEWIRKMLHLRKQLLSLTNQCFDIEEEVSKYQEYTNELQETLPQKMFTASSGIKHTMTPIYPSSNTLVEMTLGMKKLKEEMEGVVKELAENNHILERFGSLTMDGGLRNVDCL
Sequence of Dual specificity tyrosine-phosphorylation-regulated kinase 1B (Q9Y463 whole entry): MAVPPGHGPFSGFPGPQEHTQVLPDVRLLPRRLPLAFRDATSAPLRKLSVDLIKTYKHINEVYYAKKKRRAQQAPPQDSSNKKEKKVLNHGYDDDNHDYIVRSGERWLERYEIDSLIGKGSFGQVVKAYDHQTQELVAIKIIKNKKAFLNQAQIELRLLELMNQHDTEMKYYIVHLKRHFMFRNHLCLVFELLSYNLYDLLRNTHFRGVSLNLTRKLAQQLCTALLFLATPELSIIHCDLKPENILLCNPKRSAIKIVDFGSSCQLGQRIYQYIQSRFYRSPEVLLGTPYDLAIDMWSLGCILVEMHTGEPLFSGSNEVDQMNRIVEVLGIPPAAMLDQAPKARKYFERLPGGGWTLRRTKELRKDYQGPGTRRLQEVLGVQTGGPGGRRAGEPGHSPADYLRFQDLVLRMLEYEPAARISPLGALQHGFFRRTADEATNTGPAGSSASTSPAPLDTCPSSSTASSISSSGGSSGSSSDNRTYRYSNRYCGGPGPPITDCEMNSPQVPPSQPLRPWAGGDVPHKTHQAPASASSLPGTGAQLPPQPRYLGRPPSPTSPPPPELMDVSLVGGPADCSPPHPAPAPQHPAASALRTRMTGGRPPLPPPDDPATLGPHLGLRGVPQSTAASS
Sequence of Mitogen-activated protein kinase kinase kinase kinase 2 (Q12851 whole entry): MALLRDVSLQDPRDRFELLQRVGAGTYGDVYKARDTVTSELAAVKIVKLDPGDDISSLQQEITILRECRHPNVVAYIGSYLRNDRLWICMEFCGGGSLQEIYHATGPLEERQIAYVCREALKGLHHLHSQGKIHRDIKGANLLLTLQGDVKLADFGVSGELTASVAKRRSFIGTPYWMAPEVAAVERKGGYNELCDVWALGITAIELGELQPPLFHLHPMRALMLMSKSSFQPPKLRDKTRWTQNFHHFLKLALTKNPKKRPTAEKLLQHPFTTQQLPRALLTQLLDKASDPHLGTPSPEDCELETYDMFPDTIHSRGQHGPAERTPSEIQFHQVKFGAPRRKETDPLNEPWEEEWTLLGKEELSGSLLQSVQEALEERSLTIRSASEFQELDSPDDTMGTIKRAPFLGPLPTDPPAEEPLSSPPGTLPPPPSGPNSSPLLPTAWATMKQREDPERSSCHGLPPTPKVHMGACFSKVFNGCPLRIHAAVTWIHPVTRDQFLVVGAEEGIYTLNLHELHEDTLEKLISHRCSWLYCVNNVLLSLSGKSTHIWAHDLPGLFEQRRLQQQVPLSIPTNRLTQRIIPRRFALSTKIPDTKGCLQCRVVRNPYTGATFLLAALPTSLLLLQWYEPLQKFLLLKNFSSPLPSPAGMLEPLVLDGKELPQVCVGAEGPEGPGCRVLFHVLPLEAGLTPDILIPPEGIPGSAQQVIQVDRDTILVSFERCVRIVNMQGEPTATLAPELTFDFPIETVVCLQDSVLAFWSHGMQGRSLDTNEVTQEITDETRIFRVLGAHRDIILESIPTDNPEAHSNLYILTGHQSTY
Sequence of Serine/threonine-protein kinase pim-2 (Q9P1W9 whole entry): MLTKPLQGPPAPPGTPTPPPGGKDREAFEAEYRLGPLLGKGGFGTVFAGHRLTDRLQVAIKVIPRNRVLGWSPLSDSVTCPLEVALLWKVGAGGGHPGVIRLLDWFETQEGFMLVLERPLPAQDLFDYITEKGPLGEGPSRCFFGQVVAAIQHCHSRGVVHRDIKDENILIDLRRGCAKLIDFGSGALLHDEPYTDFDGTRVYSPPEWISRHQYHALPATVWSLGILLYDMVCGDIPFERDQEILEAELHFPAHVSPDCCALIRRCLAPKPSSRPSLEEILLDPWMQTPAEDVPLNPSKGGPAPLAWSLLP

Structure (SMILES): NC(COc1cncc(-c2cc3ccncc3s2)c1)Cc1c[nH]c2ccccc12 (configuration not stated)
- Ki [1]: > 1.58 µM (inactive)
- Ki [2]: > 3.16 µM (inactive)
- Ki [3]: > 7.94 µM (inactive)
- Ki [4]: 2 µM (active)
- Ki [5]: > 1.58 µM (inactive)
- Ki [6]: 7.94 µM (active)
- Ki [7]: 1.58 µM (active)
- Ki [8]: > 3.98 µM (inactive)
- Ki [9]: 794 nM (active)
- Ki [10]: 398 nM (active)
- Ki [11]: 398 nM (active)
- Ki [12]: 794 nM (active)
- Ki [13]: > 3.98 µM (inactive)
- Ki [14]: 251 nM (active)
- Ki [15]: > 1.58 µM (inactive)
- Ki [16]: 398 nM (active)
- Ki [17]: 794 nM (active)
- Ki [18]: > 2 µM (inactive)
- Ki [19]: 25.1 nM (active)
- Ki [20]: > 7.94 µM (inactive)
- Ki [21]: 316 nM (active)
- Ki [22]: 200 nM (active)
- Ki [23]: 398 nM (active)

Structure (SMILES): CN(C)C1CCC(Nc2nc(Cl)cc(-c3c[nH]c4ncccc34)n2)CC1 (configuration not stated)
- Ki [24]: 2 µM (active)
- Ki [25]: > 3.98 µM (inactive)
- Ki [26]: 2.51 µM (active)
- Ki [27]: 25.1 nM (active)
- Ki [28]: 63.1 nM (active)
- Ki [29]: 200 nM (active)
- Ki [30]: 5.01 nM (active)
- Ki [31]: > 6.31 µM (inactive)
- Ki [32]: 39.8 nM (active)
- Ki [33]: 1.26 µM (active)
- Ki [34]: 2.51 nM (active)
- Ki [35]: 15.8 nM (active)
- Ki [36]: 316 nM (active)
- Ki [37]: 7.94 nM (active)
- Ki [38]: 25.1 nM (active)
- Ki [39]: 398 nM (active)
- Ki [40]: 251 nM (active)
- Ki [41]: 1 µM (active)
- Ki [42]: 3.16 nM (active)
- Ki [43]: > 2.51 µM (inactive)
- Ki [44]: 1.58 µM (active)
- Ki [45]: 126 nM (active)
- Ki [46]: 31.6 nM (active)
- Ki [47]: > 6.31 µM (inactive)
